Measured values: PubChem BioAssay AID2060504 (Molecular Pharmacology Branch, DTP, NCI, 2025)
“And” between values parts separate entries of the source, which are not always exact repeats. Equal entries are not always repeated. Blank lines part the entries; values can stand above or below the molecule they belong to.

System: 636577-100-R-J1-PDC complex spheroid viability
Assay: Anticancer human tumor 636577-100-R-J1-PDC patient-derived endometrial adenocarcinoma cell line growth inhibition [GQUAD]
Settings: for viability, T/C: stronger effect = lower value; for IC50: curve of compound
From the text: DNA G-quadruplex Stabilizer Agents in Combinations in Complex Spheroids
A high-throughput screen of multi-cell type tumor spheroids was designed to identify active combinations of DNA G-quadruplex stabilizer agents and targeted small molecules. Complex spheroids include a stromal component modeled by human endothelial cells (HUVEC) and fibroblasts modeled by human mesenchymal stem cells (MSCs). The concentration ranges selected for each drug and investigational agent were based upon clinically achievable concentrations if the clinical Cmax of the agent was known.
Compounds. The drugs and investigational agents: pidnarulex (CX-5461; NSC782164), APTO-253 (NSC789042), BRACO-19 (NSC847499), peposertib (NSC802822), ceralasertib (NSC780249), elimusertib (NSC800525), camonsertib (NSC841442), AZD-1390 (NSC803789), olaparib (NSC753686), talazoparib (NSC767125), ART-558 (NSC835418), sotorasib (NSC818433), MRTX-1133 (NSC836407), SN-38 (NSC673596), topotecan (NSC609699), etoposide (NSC141540), doxorubicin (NSC123127), gemcitabine (NSC613327), 5-fluorouracil (NSC19893), paclitaxel (NSC125973), vemurafenib (NSC761431), panobinostat (NSC761190), R-306465 (JNJ-16241199; NSC773264), adavosertib (NSC754352), TP-3654 (NSC805149), carboplatin (NSC241240), KSQ-4279 (NSC840948), and staurosporine (NSC755774) were obtained from the National Cancer Institute (NCI) Developmental Therapeutics Program Chemical Repository (34). The FDA-approved anticancer drug set is available from the NCI Developmental Therapeutics Program. […] The stock solutions were prepared in dimethyl sulfoxide (DMSO, Sigma-Aldrich, St. Louis, MO, cat. D2650) at 800-fold the tested concentration and stored at -70 degrees C prior to their use. All drugs and investigational agents were tested over a range starting from a high concentration at or near the clinical Cmax and decreasing in half-log increments. If the clinical Cmax for an agent had not been determined, the highest concentration tested was 10 microM.
2.3 Cell Culture. All cells were maintained in an incubator at 37 degrees C and 5% CO2 with 95% humidity. The PDC lines were cultured according to standard operating procedures established by the NCI PDMR. All PDCs were thawed and cultured in Matrigel-coated flasks prepared with a working solution of 1X Ham's F-12 nutrient mix, without supplementation (Invitrogen, cat. 11765054), 100 U/mL penicillin-streptomycin (Invitrogen, cat. 15140122), and 2.5% Matrigel (Corning Inc., cat. 354248) for the first three passages. The 857933-349-R-J2-PDC line was cultured in 6C/Colon 1B media, which includes advanced DMEM/F-12 (Thermo Fisher Scientific, cat. 12634028), 10 mM HEPES (Thermo Fisher Scientific, cat. 15630080), 1X GlutaMAX supplement (Thermo Fisher Scientific, cat. 35050061), 0.1 mg/mL primocin (InvivoGen, cat. ant-pm-2), 10% defined fetal bovine serum, heat inactivated (HyClone Laboratories Inc., cat. SH30070.03HI), 50% L-WRN conditioned media (ATCC, cat. CRL-3276), 1.25 mM N-Acetyl-L-cysteine (Sigma-Aldrich, cat. A9165), 10 mM nicotinamide (Sigma-Aldrich, cat. N0636), 1X B-27 supplement (Thermo Fisher Scientific, cat. 17504044), 1X N-2 supplement (Thermo Fisher Scientific, cat. 17502048), 10 microM Y-27632 dihydrochloride (Tocris Bioscience, cat. 1254), and 50 ng/mL human EGF recombinant protein (Thermo Fisher Scientific, cat. PHG0311). The 485176-168-R4-J1-PDC line was cultured in Panc media, which includes all 6C/Colon 1B media components plus 100 ng/mL human FGF-10 (Thermo Fisher Scientific, cat. 100-26), 500 nM SB-431542 (Selleckchem, cat. S1067), and gastrin (Tocris, cat. 3006).
[…]
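Also: viability read after seven days of drug exposure.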
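For viability, T/C in this document: luminescence signal used as a proxy for viable cells; 100% = DMSO vehicle control wells.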

- IC50: > 10000 nM and 9350 nM
SMILES: Cc1cccc(N(C)C(=O)C2C(O)CCN2c2nc(C)cc(C(F)(F)F)c2C#N)c1 (stereo not drawn)
- viability, T/C (compound 0.0316 µM): 55.9% and 99.9% and 91.4%
- viability, T/C (compound 0.1 µM): 87% and 96.7% and 33.3%
- viability, T/C (compound 0.316 µM): 95.6% and 94.5% and 96%
- viability, T/C (compound 1 µM): 75.2% and 81.8% and 94.4%
- viability, T/C (compound 3.16 µM): 76% and 84.7% and 55.7%
- viability, T/C (compound 10 µM): 74.4% and 87.5% and 49.5%

- IC50: < 31.6 nM and 54.1 nM and 36.7 nM
SMILES: CC1COCCN1c1cc(C2(O)CC3CCC(C2)O3)c2cnn(-c3ccn[nH]3)c2n1 (stereo not drawn)
- viability, T/C (compound 0.0316 µM): 45.5% and 69.8% and 52.9%
- viability, T/C (compound 0.1 µM): 36.3% and 25.4% and 31.3%
- viability, T/C (compound 0.316 µM): 18.9% and 15.5% and 18%
- viability, T/C (compound 1 µM): 8.03% and 6.74% and 6.72%
- viability, T/C (compound 3.16 µM): 3.6% and 2.83% and 2.96%
- viability, T/C (compound 10 µM): 1.1% and 0.71% and 1.08%

- IC50: 113 nM and 71 nM and 109 nM
SMILES: CC1COCCN1c1cc(-c2ccnn2C)c2ccnc(-c3ccn[nH]3)c2n1 (stereo not drawn)
- viability, T/C (compound 0.0316 µM): 85.1% and 78.3% and 94.5%
- viability, T/C (compound 0.1 µM): 52.2% and 35.1% and 51.9%
- viability, T/C (compound 0.316 µM): 29.6% and 23.1% and 25.6%
- viability, T/C (compound 1 µM): 15.7% and 12.7% and 13%
- viability, T/C (compound 3.16 µM): 5.78% and 5.92% and 5.17%
- viability, T/C (compound 10 µM): 3.61% and 3.66% and 3.51%

Further lines, the molecule ahead of its results:

SMILES: O=c1[nH]cc(F)c(=O)[nH]1
- viability, T/C (compound 0.0316 µM): 102% and 99.7%
- viability, T/C (compound 0.1 µM): 85% and 68.9%
- viability, T/C (compound 0.316 µM): 101% and 89.5%
- viability, T/C (compound 1 µM): 76.2% and 91.4%
- viability, T/C (compound 3.16 µM): 44.2% and 71%
- viability, T/C (compound 10 µM): 24.7% and 28.6%
- IC50: 2530 nM and 5590 nM

SMILES: COc1cc(C2c3cc4c(cc3C(OC3OC5COC(C)OC5C(O)C3O)C3COC(=O)C23)OCO4)cc(OC)c1O (stereo not drawn)
- viability, T/C (compound 0.0316 µM): 80.7% and 81.6% and 73.5%
- viability, T/C (compound 0.1 µM): 43.7% and 40.4% and 34.9%
- viability, T/C (compound 0.316 µM): 24.3% and 21.7% and 21.6%
- viability, T/C (compound 1 µM): 18.6% and 19% and 17.9%
- viability, T/C (compound 3.16 µM): 15.4% and 13.9% and 16.5%
- viability, T/C (compound 10 µM): 13% and 12.7% and 13.3%
- IC50: 81.9 nM and 76.2 nM and 64 nM

SMILES: Cc1cnc(CNC(=O)c2c(=O)c3ccc(N4CCCN(C)CC4)nc3n3c2sc2ccccc23)cn1
- viability, T/C (compound 0.0316 µM): 50.9% [middle of 10 runs]
- viability, T/C (compound 0.1 µM): 29.8% [middle of 10 runs]
- viability, T/C (compound 0.316 µM): 26.9% [middle of 10 runs]
- viability, T/C (compound 1 µM): 24.9% [middle of 10 runs]
- viability, T/C (compound 3.16 µM): 22.2% [middle of 10 runs]
- viability, T/C (compound 10 µM): 20.8% [middle of 10 runs]

SMILES: Nc1ccn(C2OC(CO)C(O)C2(F)F)c(=O)n1 (stereo not drawn)
- viability, T/C (compound 0.0316 µM): 15% and 15.2%
- viability, T/C (compound 0.1 µM): 14.2% and 11.3%
- viability, T/C (compound 0.316 µM): 17.7% and 13.5%
- viability, T/C (compound 1 µM): 16.3% and 13.1%
- viability, T/C (compound 3.16 µM): 13.8% and 14.3%
- viability, T/C (compound 10 µM): 14.2% and 11%
- IC50: < 31.6 nM
